Data from patent US8344028B2, “Gamma-amino-butyric acid derivatives as GABAB receptor ligands” (XenoPort, Inc., priority 2009, dated 2013).
Where a name gives a salt, the structure may show the parent alone.

What was measured:
[1] = molecular target: T1, recombinant human GABABR1a2 (Homo sapiens, UniProt Q9UBS5); experiment: cAMP assay for determining GABAB receptor agonist activity; assay type: cell-based
T1 construct: expressed in transfected cells; host or cells: HEK cells
Method: The following procedure was used to determine the level of intracellular cAMP. Recombinant HEK cells expressing the GABAB R1a2 receptor were used in the experiments. cAMP levels were measured using a cAMP XS^+ HitHunter™ Chemiluminescence Assay Kit (90-0075-02, GE Healthcare Biosciences Corp.). Cells were seeded overnight at 5,000 cells per well, in black, clear bottom 96-well plates. The following morning, cells were washed twice with 100 μL PBS per well. Forskolin was weighed out and dissolved in DMSO to a final concentration 100 mM. One-hundred (100) μM forskolin solutions were prepared in PBS with and without test compound at 1-times final concentration. Thirty (30) μL of the test solutions were added to the wells and incubated for 1 h at room temperature. The cAMP concentration was determined according to the protocol described in the cAMP assay kit, maintaining the plate at room temperature and in the dark. Two hours after the final kit reagent was added, the plate bottom was covered with black tape, and the plate read using a 1450 MicroBeta Trilux microplate scintillation and luminescence counter (PerkinElmer, Waltham, Mass.). Each well was read for 6 seconds. The untransformed data was then analyzed.

[2] = molecular target: T2, GABAB receptor (Rattus norvegicus, UniProt Q9Z0U4); experiment: [3H]CGP54626 rat brain GABAB receptor binding assay; settings: [3H]CGP54626 rat brain binding assay
T2 construct: from tissue; host or cells: rat cerebral cortex membranes
Method: An assay using rat cerebral cortex membranes was used to determine the affinity of GABAB receptor ligands for the GABAB receptor.
An assay buffer of 50 mM Tris pH 7.4 was prepared with 100 μM of isoguvacine, to block GABAA interactions. The assay buffer with isoguvacine was used for dilution of membranes, compounds, and radiolabel.
Rat cerebral cortex membranes were diluted in assay buffer at 1 mg/mL and aliquoted into a 96-well plate at 900 μL/well. Buffer or test compound were added at 20-times final concentration in the buffer at 50 μL/well. Membranes and test compounds or buffer were incubated for 10 min. at room temperature. Radiolableled [S—(R*,R*)]-[3-[[1-(3,4-dichlorophenyl)ethyl]amino]-2-hydroxypropyl](cyclohexylmethyl) phosphinic acid (CGP54626) was then added at 50 μL/well in the buffer at 1-10 nM concentration in 50 μl. The mixture was incubated for 15 min. at room temperature. The assay mixture was filtered using Brandell filtration apparatus and GFB filters, washed twice with 3 mL of 4° C., 50 mM Tris pH 7.4, buffer without isoguvacine. The filters were then dried at room temperature and the dried filters punched out and placed in individual vials. Three (3) mL of scintillation fluid was added to each vial and the radiolabel counted on the scintillation counter. The inverse amount of radiolabel was indicative of binding of a test compound to the GABAB receptor.

[3] = molecular target: T1, recombinant human GABABR1a2; experiment: Ca2+ assay for determining GABAB receptor agonist activity; assay type: cell-based; settings: cells expressing recombinant human GABABR1a2
Method: The following procedure was used to determine the GABAB receptor agonist activity of a compound as reflected by activation of Ca^2+ signaling. HEK TREx cells expressing GABABR1a2 under tetracycline induction control, and Gqi chimeric protein (expressed constitutively), allowing GABABR coupling through the Ca^2+ signaling pathway were used in the experiments.
Cells were seeded in media containing tetracycline overnight at 100,000 cells/well, in black, clear-bottom, 96-well plates. The following morning, cells were washed twice with 100 μL HBSS buffer per well. Fluorescent Ca^2+ indicator dye was prepared using the materials and procedure described in the F362056 Fluo-4 NW Calcium Assay Kit (Invitrogen, Carlsbad, Calif.). Ten (10) mL of kit buffer and 100 μl of kit Probenecid were added to individual kit dye vials, and rolled back and forth several times to dissolve the dye. Cells were then loaded into the dye solution at 50 μL per well. The cells and dye were incubated for 30 min at 37° C., and then incubated for an additional 30 min at room temperature in the dark. Test compounds are dissolved in HBSS buffer at twice final concentration. Duplicate wells were used for each unique condition. Solution containing the test compound was added to the wells using a FLEXStation II (Molecular Devices, Sunnyvale, Calif.). Using the instrument in kinetic mode in which each well was read every 2 sec over a total collection time of 50 sec fluorescence was measured using an excitation wavelength 494 nm and a detection wavelength of 516 nm. A normalized fluorescence value for each well was calculated using the following procedure. The difference in fluorescence at 35 sec (usually representing maximal response) and at 15 sec (a time point prior to addition of test compounds) was calculated, divided by the fluorescence at 15 sec, and the result multiplied by 100. The final value represented the percent increase in fluorescence relative to the fluorescence at 15 sec. Data was analyzed using standard procedures.

[4] = molecular target: GABAB receptor (Homo sapiens, UniProt Q9UBS5); experiment: GABAB receptor agonist or partial agonist activity by binding, electrophysiology, cAMP and/or Ca2+ assay methods (Examples 83-86); assay type: cell-based
Procedure, shortened: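 Binding: rat cortex membranes in 50 mM Tris pH 7.4 with 100 μM isoguvacine were preincubated 10 min at RT with compound, then radiolabeled CGP54626 (1-10 nM) was added; filtered and scintillation-counted. cAMP: GABAB R1a2 HEK cells, 1 h RT with 100 μM forskolin, chemiluminescence.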

[5] = cells expressing recombinant human GABABR1a2, read-out: cAMP EC50

T1 sequence (Q9UBS5 15-961 limits assumed): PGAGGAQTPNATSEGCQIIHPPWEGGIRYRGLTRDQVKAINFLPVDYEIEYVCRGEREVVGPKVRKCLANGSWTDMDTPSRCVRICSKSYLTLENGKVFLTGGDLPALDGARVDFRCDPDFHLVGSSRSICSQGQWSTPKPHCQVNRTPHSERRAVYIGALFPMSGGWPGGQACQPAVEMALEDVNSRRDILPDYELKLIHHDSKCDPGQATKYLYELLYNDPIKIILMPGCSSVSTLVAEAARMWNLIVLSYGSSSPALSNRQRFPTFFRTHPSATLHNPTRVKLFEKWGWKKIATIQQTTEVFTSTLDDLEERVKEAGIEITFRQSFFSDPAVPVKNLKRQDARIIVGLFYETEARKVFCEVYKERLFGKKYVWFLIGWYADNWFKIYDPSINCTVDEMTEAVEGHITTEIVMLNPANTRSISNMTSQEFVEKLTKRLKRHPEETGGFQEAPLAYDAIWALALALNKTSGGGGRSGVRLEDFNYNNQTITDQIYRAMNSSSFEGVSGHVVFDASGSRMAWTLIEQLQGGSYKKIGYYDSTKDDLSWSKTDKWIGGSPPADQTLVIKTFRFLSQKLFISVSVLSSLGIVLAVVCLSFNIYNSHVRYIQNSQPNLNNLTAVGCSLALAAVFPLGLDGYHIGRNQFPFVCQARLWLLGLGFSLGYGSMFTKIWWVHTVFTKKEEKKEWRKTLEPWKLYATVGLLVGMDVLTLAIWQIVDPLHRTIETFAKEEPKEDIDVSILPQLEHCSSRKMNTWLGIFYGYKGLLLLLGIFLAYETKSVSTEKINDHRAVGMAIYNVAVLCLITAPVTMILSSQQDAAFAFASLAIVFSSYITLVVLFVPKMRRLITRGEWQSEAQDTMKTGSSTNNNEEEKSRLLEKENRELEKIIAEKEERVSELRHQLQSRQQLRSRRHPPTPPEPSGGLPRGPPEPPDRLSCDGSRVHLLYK
T1 sequence (O75899 42-941 partner): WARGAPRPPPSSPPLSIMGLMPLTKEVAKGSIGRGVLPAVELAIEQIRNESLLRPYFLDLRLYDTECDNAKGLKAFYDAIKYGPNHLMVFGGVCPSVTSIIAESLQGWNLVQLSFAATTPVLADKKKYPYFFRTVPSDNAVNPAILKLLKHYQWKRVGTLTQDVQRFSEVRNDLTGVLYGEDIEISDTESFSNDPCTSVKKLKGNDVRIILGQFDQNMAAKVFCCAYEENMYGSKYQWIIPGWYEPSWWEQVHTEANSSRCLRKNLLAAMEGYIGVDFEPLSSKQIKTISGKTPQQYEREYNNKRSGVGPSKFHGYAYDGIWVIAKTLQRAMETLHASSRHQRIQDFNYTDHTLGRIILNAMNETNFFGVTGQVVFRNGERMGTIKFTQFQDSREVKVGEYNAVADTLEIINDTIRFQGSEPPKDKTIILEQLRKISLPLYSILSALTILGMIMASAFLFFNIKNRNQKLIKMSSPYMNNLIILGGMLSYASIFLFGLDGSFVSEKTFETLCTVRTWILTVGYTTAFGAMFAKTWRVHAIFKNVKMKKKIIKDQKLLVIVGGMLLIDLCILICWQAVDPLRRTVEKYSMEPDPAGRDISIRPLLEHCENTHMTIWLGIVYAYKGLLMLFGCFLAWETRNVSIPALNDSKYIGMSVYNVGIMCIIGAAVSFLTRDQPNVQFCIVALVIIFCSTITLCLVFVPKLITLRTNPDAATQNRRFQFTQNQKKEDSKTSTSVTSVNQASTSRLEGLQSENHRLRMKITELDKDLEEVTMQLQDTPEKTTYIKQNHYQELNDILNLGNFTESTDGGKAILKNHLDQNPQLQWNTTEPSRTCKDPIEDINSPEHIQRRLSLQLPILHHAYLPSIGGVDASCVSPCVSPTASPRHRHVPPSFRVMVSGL
T2 sequence (Q9Z0U4 20-960): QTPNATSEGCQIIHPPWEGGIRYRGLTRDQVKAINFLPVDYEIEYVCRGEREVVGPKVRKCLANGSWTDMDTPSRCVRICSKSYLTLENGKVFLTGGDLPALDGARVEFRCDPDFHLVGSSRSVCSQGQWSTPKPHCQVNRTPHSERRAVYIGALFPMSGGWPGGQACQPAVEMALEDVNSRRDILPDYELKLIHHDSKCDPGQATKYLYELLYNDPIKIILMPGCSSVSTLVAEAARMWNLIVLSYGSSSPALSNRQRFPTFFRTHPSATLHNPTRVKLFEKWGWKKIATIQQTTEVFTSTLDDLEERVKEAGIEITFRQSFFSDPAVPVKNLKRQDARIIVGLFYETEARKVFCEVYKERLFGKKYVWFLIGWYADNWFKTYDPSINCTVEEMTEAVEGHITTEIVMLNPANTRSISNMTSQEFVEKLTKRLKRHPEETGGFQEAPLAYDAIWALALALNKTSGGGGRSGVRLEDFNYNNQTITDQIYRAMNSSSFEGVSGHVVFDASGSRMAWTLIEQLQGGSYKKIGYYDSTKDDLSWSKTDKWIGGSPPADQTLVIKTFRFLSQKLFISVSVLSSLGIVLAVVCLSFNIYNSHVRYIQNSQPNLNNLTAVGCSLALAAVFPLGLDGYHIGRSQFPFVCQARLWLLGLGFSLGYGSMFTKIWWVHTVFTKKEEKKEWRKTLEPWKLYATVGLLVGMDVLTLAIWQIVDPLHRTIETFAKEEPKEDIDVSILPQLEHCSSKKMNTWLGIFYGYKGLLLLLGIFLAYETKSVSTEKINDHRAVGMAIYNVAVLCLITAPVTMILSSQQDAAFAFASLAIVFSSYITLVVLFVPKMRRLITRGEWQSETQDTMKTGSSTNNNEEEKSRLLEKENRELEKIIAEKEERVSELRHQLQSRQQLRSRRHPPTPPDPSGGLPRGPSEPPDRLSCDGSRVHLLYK
T2 sequence (O88871 41-940 partner): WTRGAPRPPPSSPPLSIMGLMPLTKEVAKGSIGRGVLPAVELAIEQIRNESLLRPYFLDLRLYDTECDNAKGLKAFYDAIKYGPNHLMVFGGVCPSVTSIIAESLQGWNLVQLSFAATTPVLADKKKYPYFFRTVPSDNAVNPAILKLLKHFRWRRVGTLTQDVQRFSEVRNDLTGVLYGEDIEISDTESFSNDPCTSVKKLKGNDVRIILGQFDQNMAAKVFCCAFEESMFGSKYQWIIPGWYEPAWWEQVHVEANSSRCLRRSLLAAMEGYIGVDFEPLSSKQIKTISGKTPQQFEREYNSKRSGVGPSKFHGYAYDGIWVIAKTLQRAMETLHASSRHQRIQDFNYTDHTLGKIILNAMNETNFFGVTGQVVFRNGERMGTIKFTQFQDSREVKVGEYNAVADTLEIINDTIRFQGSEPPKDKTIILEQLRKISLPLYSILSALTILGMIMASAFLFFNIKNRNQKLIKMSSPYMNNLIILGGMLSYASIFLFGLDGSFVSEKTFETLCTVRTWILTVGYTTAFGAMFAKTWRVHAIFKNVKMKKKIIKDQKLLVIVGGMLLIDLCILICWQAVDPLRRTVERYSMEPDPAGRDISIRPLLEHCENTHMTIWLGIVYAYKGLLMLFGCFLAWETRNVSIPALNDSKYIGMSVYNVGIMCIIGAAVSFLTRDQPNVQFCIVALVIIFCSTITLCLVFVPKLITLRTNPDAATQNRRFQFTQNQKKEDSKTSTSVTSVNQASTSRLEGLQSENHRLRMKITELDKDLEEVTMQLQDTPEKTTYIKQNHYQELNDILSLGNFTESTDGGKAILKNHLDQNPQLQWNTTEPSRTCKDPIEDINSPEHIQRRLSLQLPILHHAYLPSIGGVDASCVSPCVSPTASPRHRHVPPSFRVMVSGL
GABAB receptor (Homo sapiens, UniProt Q9UBS5), sequence (Q9UBS5 20-961): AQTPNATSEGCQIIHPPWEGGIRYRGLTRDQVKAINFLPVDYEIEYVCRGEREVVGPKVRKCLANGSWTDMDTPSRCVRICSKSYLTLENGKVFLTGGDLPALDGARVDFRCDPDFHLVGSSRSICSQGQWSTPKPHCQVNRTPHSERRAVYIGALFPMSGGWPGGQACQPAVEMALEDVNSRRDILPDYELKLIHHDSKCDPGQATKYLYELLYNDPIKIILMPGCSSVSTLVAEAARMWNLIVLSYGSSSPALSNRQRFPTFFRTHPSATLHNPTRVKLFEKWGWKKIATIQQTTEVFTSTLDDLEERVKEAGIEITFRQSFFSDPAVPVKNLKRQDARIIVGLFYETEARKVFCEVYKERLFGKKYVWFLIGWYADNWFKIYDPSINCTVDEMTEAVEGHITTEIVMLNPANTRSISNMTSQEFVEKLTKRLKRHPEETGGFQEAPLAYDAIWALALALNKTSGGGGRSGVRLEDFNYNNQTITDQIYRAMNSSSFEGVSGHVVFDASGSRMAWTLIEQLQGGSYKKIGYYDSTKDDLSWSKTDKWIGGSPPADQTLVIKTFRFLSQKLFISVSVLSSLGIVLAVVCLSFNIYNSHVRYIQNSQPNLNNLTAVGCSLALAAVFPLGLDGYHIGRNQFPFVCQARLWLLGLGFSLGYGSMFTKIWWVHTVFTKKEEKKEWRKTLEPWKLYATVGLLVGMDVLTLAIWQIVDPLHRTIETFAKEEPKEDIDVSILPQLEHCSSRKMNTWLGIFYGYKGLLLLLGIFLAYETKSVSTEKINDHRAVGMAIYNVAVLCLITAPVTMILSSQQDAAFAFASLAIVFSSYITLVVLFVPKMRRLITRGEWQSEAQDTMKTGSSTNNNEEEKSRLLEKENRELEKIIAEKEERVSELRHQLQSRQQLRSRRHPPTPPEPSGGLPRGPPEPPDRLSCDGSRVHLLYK
GABAB receptor (Homo sapiens, UniProt Q9UBS5), sequence (O75899 42-941 partner): as the sequence (O75899 42-941 partner) above

SMILES	EC50 [1, 5]	IC50 [2]	EC50 [3]	GABAB receptor agonist or partial agonist activity [4]	EC50 [1]
Cc1cc(COc2cc([C@H](CN)CC(=O)O)ccc2Cl)ccn1 [(3R)-4-amino-3-{4-chloro-3-[(2-methyl(4-pyridyl))methoxy]phenyl}butanoic acid hydrochloride]	< 100 nM	< 25000 nM	< 700 nM	–	–
NCC(C[PH](=O)O)c1ccc(Cl)c(OCc2ccncc2)c1 (stereo not drawn) [Example 82, 2-{4-Chloro-3-(4-pyridylmethoxy)phenyl]-3-(hydrohydroxyphosphoryl)propylamine]	–	< 25000 nM	< 700 nM	–	< 100 nM
NC[C@H](CC(=O)O)c1ccc(Cl)c(OCc2ccncc2Cl)c1 [(3R)-4-amino-3-{4-chloro-3-[(3-chloro(4-pyridyl))methoxy]phenyl}butanoic acid hydrochloride]	< 100 nM	< 25000 nM	< 700 nM	–	–
NC[C@H](CC(=O)O)c1ccc(Cl)c(-c2ccc([N+](=O)[O-])cc2)c1 [Example 47, (3R)-4-Amino-3-[4-chloro-3-(4-nitrophenyl)phenyl]butanoic acid hydrochloride]	< 100 nM	< 25000 nM	< 700 nM	–	–
Cl.NC[C@H](CC(=O)O)c1ccc(Cl)c(-c2cccc(O)c2)c1 [Example 34, (3R)-4-Amino-3-[4-chloro-3-(3-hydroxyphenyl)phenyl]butanoic acid hydrochloride]	–	–	–	agonist or partial agonist activity	–
Cl.N#Cc1cc(O)cc(-c2cc([C@H](CN)CC(=O)O)ccc2Cl)c1 [(3R)-4-amino-3-[4-chloro-3-(3-cyano-5-hydroxyphenyl)phenyl]butanoic acid hydrochloride]	–	–	–	agonist or partial agonist activity	–
Cl.NC[C@H](CC(=O)O)c1ccc(Cl)c(NCc2cccc(C(=O)O)c2)c1 [3-[({5-[(1R)-2-amino-1-(carboxymethyl)ethyl]-2-chlorophenyl}amino)methyl]benzoic acid hydrochloride]	–	–	–	agonist or partial agonist activity	–
Cl.NC[C@@H](CC(=O)O)c1ccc(Cl)c(-c2cccnc2)c1 [(3S)-4-amino-3-(4-chloro-3-(3-pyridyl)phenyl)butanoic acid hydrochloride]	–	–	–	agonist or partial agonist activity	–
CN(C)C(=O)c1ccc(-c2cc([C@H](CN)CC(=O)O)ccc2Cl)s1 [(3R)-4-amino-3-{3-[5-(N,N-dimethylcarbamoyl)(2-thienyl)]-4-chlorophenyl}butanoic acid hydrochloride]	< 100 nM	< 25000 nM	< 700 nM	–	–
Cl.NC[C@H](CC(=O)O)c1ccc(Cl)c(Cc2ccc(C(=O)O)cc2)c1 [4-({5-[(1R)-2-amino-1-(carboxymethyl)ethyl]-2-chlorophenyl}methyl)benzoic acid hydrochloride]	–	–	–	agonist or partial agonist activity	–
Cl.NC[C@H](CC(=O)O)c1ccc(Cl)c(-c2cc(Cl)ccn2)c1 [(3R)-4-amino-3-[4-chloro-3-(4-chloro(2-pyridyl))phenyl]butanoic acid hydrochloride]	–	–	–	agonist or partial agonist activity	–
N#Cc1cc(-c2cc([C@H](CN)CC(=O)O)ccc2Cl)cs1 [(3R)-4-amino-3-[4-chloro-3-(5-cyano(3-thienyl))phenyl]butanoic acid hydrochloride]	< 100 nM	< 25000 nM	< 700 nM	–	–
Cl.NC[C@H](CC(=O)O)c1ccc(Cl)c(NCc2ccc([N+](=O)[O-])cc2)c1 [(3R)-4-amino-3-(4-chloro-3-{[(4-nitrophenyl)methyl]amino}phenyl)butanoic acid hydrochloride]	–	–	–	agonist or partial agonist activity	–

Second part, led by results:

EC50 [1, 5]	IC50 [2]	EC50 [3]	GABAB receptor agonist or partial agonist activity [4]	SMILES	EC50 [1]
< 100 nM	< 25000 nM	< 700 nM	–	NC[C@H](CC(=O)O)c1ccc(Cl)c(-c2cc(C(=O)O)cs2)c1 [5-{5-[(1R)-2-amino-1-(carboxymethyl)ethyl]-2-chlorophenyl}thiophene-3-carboxylic acid hydrochloride]	–
< 100 nM	< 25000 nM	< 700 nM	–	NC[C@H](CC(=O)O)c1ccc(Cl)c(OCc2cncs2)c1 [(3R)-4-amino-3-[4-chloro-3-(1,3-thiazol-5-ylmethoxy)phenyl]butanoic acid hydrochloride]	–
< 100 nM	< 25000 nM	< 700 nM	–	C[C@@H](Oc1cc([C@H](CN)CC(=O)O)ccc1Cl)c1ccncc1 [(3R)-3-[3-((1R)-1-(4-pyridyl)ethoxy)-4-chlorophenyl]-4-aminobutanoic acid hydrochloride]	–
< 100 nM	< 25000 nM	< 700 nM	–	NC[C@H](CC(=O)O)c1ccc(Cl)c(OCCc2ccncc2)c1 [(3R)-4-amino-3-[4-chloro-3-(2-(4-pyridyl)ethoxy)phenyl]butanoic acid hydrochloride]	–
< 100 nM	< 25000 nM	< 700 nM	–	COC(=O)C[C@@H](CN)c1ccc(Cl)c(OCc2ccncc2)c1 [methyl (3R)-4-amino-3-[4-chloro-3-(4-pyridylmethoxy)phenyl]butanoate hydrochloride]	–
–	–	–	agonist or partial agonist activity	NC[C@H](CC(=O)O)c1cc(Br)c(Cl)c(-c2cc(Cl)cc(C(=O)O)c2)c1 [3-{5-[(1R)-2-amino-1-(carboxymethyl)ethyl]-3-bromo-2-chlorophenyl}-5-chlorobenzoic acid]	–
–	–	–	agonist or partial agonist activity	Cl.NC[C@H](CC(=O)O)c1ccc(Cl)c(-c2ccc(C(=O)O)cc2)c1 [Example 24, 4-{5-[(1R)-2-Amino-1-(carboxymethyl)ethyl]-2-chlorophenyl}benzoic acid hydrochloride]	–
< 100 nM	< 25000 nM	< 700 nM	–	NC[C@H](CC(=O)O)c1ccc(Cl)c(-c2cc(C(=O)O)co2)c1 [5-{5-[(1R)-2-amino-1-(carboxymethyl)ethyl]-2-chlorophenyl}furan-3-carboxylic acid hydrochloride]	–
–	–	–	agonist or partial agonist activity	Cl.NC[C@H](CC(=O)O)c1ccc(Cl)c(-c2cc(F)c(F)c(F)c2)c1 [(3R)-4-amino-3-[4-chloro-3-(3,4,5-trifluorophenyl)phenyl]butanoic acid hydrochloride]	–
–	–	–	agonist or partial agonist activity	Cl.NC[C@H](CC(=O)O)c1ccc(Cl)c(Oc2ccncc2)c1 [(3R)-4-amino-3-(4-chloro-3-(4-pyridyloxy)phenyl)butanoic acid hydrochloride]	–
–	–	–	agonist or partial agonist activity	CN(C)c1cccc(-c2cc([C@H](CN)CC(=O)O)ccc2Cl)n1.Cl [(3R)-4-amino-3-{3-[6-(dimethylamino)(2-pyridyl)]-4-chlorophenyl}butanoic acid hydrochloride]	–
